Results reported in patent US20110064789A1, “DOCOSAHEXANOIC ACID AS INHIBITOR OF H. PYLORI” (priority 2009, published 2011).

Columns and labels:
[1] = tested on: H. pylori; conditions: cited from earlier work
[2] = tested on: H. pylori SS1 strain; assay: Efficiency of DHA versus standard therapy in H. pylori eradication in mice; type: in vivo, C57BL/6 mice; conditions: mice infected one month; DHA 15 days, standard therapy 7 days
Text: C57BU6 mice have been infected with H. pylori SS1 strain for one month and proceed to treatment with DHA for 15 days or/and standard therapy for 7 days, as described elsewhere by Lee et al.^52 and van Zanten et al.^53. According to the standard therapy, mice received omeprazole (400 μmol/kg/day), metronidazole (14.2 μmol/kg/day) and clarithromycin (7.15 μmol/kg/day)^53.

[3] = tested on: H. pylori strain SS1; assay: Mouse model for H. pylori gastric colonization, DHA in drinking water; type: in vivo; conditions: for stomach colonization / mice in which colonization by H. pylori occurred / inhibition of H. pylori growth (gastric colonization): DHA 50 μM in drinking water
Text: Five-weeks-old specific pathogen-free C57BU6 male mice have been purchased from Charles River Laboratories (France). Animals were housed in microisolators in polycarbonate cages. Food has been supplied ad libitum. Standard diet was purchased from SAFE (Epinay/Orge, France). Animals were acclimatized for one week before inoculation. The experiments reported in the study were approved in advanced by the Central Animal Facility Committee of Institut Pasteur, in conformity with the French Ministry of Agriculture Guidelines for Animal Care.
H. pylori strain SS1 was grown on blood agar plates, harvested after 24 h and suspended in peptone broth. Twenty four mice (n=24) were orogastrically inoculated 100 μL of a suspension of 10^8 CFU/mL of H. pylori strain SS1, whereas non-infected groups of mice (n=24) were given 100 μL of peptone broth. Mice were sacrificed 1 or 3 months after infection. For each time point, the experiments consisted in 4 groups of mice, 2 groups received drinking water and for the two other groups, drinking water was supplemented with DHA at a final concentration of 50 μM. Dose of 50 μM corresponds more precisely to a quantity of 0.068 mg of DHA received by each mouse each day. Each two groups consisted of one uninfected-group (n=6) and one H. pylori strain SS1 infected-group (n=6). Stomachs were isolated from each mouse and used to measure H. pylori colonization as previously described by Ferrero et al.^51
C57BL/6 mice were therefore infected with SS1 strain and start on DHA treatment for the whole period of the experiment, which was given in their drinking water in a concentration of 50 μM. Mice were sacrificed at one, three, six or nine months of infection.

[4] = tested on: H. pylori strains 26695, SS1 and B128; assay: In vitro addition of DHA to a 12 hours H. pylori culture (bactericidal/bacteriostatic effect, CFU); type: cell-based, Helicobacter pylori; conditions: versus prior art doses
Protocol: Stock solutions of DHA were diluted at desired concentrations (from 10 μM to 1000 μM) in Brucella broth (BB) enriched with 10% FBS. […] Each experiment consisting of a control (bacterial medium) and bacteria incubated with DHA at 10 μ[…] and 1000 μM was performed in triplicate. DHA was added at the time 0 of the experiments or after 12 hours. H. pylori broth cultures were incubated microaerophilically, at 37° C. for 48 hours. Every 6 hours, the OD 600 nm of the cultures was measured and 200 μL samples were diluted and plated on blood agar plates for the numeration of viable bacteria (colony-forming-units (CFU)) after 48 hours of incubation at 37° C. The question as to whether DHA has a bactericidal effect was answered by conducting an experiment where DHA was added to a 12 hours H. pylori culture. FIG. 2 represents the viability of the three strains of H. pylori used. Addition of DHA after 12 hours of H. pylori growth led to a decrease of the ability to form CFU in a dose dependent manner.

[5] = tested on: H. pylori strains 26695 (ATCC 700392), SS1 and B128; assay: In vitro incubation of H. pylori broth cultures with DHA added at time 0 (growth, viable CFU); type: cell-based, Helicobacter pylori; conditions: DHA 250 μM
[6] = tested on: H. pylori; conditions: in vitro assay of Thompson et al.; cited from earlier work

In the case of `CCC(C(=O)O)c1ccccc1` (stereo not shown) [2-phenylbutyrate], the “effect on growth of H. pylori” value [1] is given as “ability to inhibit the growth of H. pylori”.

In the case of `O=C(O)CCCc1ccccc1` [4-phenylbutyrate], the “effect on growth of H. pylori” value [1] is listed as “ability to inhibit the growth of H. pylori”.

For `CC/C=C\C/C=C\C/C=C\C/C=C\C/C=C\C/C=C\CCC(=O)O` [DHA, docosahexaenoic acid], the lower gastric colonization [2] was 10 times, the “dose that showed a higher inhibitory role in gastric colonization” value ([3]; 25, 50 and 100 μM tested in drinking water) was 50 µM and the stomach colonization ([3]; after 1 month of infection) was 0.47×10^5 CFU/g gastric tissue. For the same molecule, the stomach colonization ([3]; after the third month) was 0.62×10^5 CFU/g gastric tissue, the “mice in which colonization by H. pylori occurred” value ([3]; first month of infection) was 20% and the “mice in which colonization by H. pylori occurred” value ([3]; third month) was 50%. The “inhibition of H. pylori growth (gastric colonization)” value ([3]; nine months of infection) was “about 100 fold”, the “inhibition of H. pylori growth (gastric colonization)” value ([3]; one, three and six months of infection) was “approximately 10 fold” and the toxicity ([3]; DHA 50 μM in mice drinking water, 0.068 mg per mouse per day) was “no toxicity concerns”. For the same molecule, the “doses giving bactericidal and bacteriostatic effects, lower than the prior art doses” value [4] was 5 to 10 times and the “bacterial viability of strain 26695 as compared to SS1” value [5] was 100 times.

In the case of `CC/C=C\C/C=C\C/C=C\C/C=C\C/C=C\CCCC(=O)O` [EPA], the “concentration that could inhibit the growth of H. Pylori” value [6] is listed as 0.2 mM.

For `CC/C=C\C/C=C\C/C=C\CCCCCCCC(=O)O` [linolenic acid ω-3C18:3], the “concentration that could inhibit the growth of H. Pylori” value [6] is listed as 0.2 mM.

In the case of `CCCCC/C=C\C/C=C\C/C=C\CCCCC(=O)O` [ω-6C18:3, linolenic acid ω-6C18:3], the “concentration that could inhibit the growth of H. Pylori” value [6] is listed as 0.2 mM.
